Calls of active or inactive are those of the source. The rule behind the calls is not given here.
Experiments:
Mus musculus [1] = assay: Neurotoxicity in Swiss albino mouse assessed as climbing response to inverted mesh at 346 umol/kg, sc administered measured every 15 mins for 2 hrs by wire mesh grasping test; format: toxicity, organism-based; conditions: in vivo
Mus musculus [2] = assay: Anticonvulsant activity in Swiss albino mouse assessed as protection against subcutaneous pentylenetetrazol-induced seizures at 346 umol/kg, ip administered 30 mins before pentylenetetrazole challenge measured after 30 mins relative to stiripentol; format: functional
Mus musculus [3] = assay: Anticonvulsant activity in Swiss albino mouse assessed as protection against subcutaneous pentylenetetrazol-induced seizures at 346 umol/kg, ip administered 30 mins before pentylenetetrazole challenge measured after 30 mins; format: functional
Mus musculus [4] = assay: Anticonvulsant activity in ip dosed Swiss albino mouse assessed as maximal electroshock-induced seizures administered 30 mins before electroshock challenge; format: functional
Mus musculus [5] = assay: Neurotoxicity in Swiss albino mouse assessed as effect on hindlimb grip strength at 346 umol/kg, sc administered measured every 15 mins for 2 hrs; format: toxicity, organism-based; conditions: in vivo
Mus musculus [6] = assay: Anticonvulsant activity in Swiss albino mouse assessed as maximal electroshock-induced seizures at 346 umol/kg, ip administered 30 mins before electroshock challenge; format: functional
Mus musculus [7] = assay: Anticonvulsant activity in Swiss albino mouse assessed as protection against subcutaneous pentylenetetrazol-induced seizures at 330 umol/kg, ip administered 30 mins before pentylenetetrazole challenge measured after 30 mins relative to stiripentol; format: functional
Mus musculus [8] = assay: Anticonvulsant activity in Swiss albino mouse assessed as protection against subcutaneous pentylenetetrazol-induced seizures at 330 umol/kg, ip administered 30 mins before pentylenetetrazole challenge measured after 30 mins; format: functional
Mus musculus [9] = assay: Anticonvulsant activity in Swiss albino mouse assessed as maximal electroshock-induced seizures at 330 umol/kg, ip administered 30 mins before electroshock challenge; format: functional
Mus musculus [10] = assay: Anticonvulsant activity in Swiss albino mouse assessed as protection against subcutaneous pentylenetetrazol-induced seizures at 108 umol/kg, ip administered 30 mins before pentylenetetrazole challenge measured after 30 mins; format: functional
Mus musculus [11] = assay: Anticonvulsant activity in Swiss albino mouse assessed as maximal electroshock-induced seizures at 390 umol/kg, ip administered 30 mins before electroshock challenge; format: functional, organism-based
Mus musculus [12] = assay: Anticonvulsant activity in Swiss albino mouse assessed as protection against subcutaneous pentylenetetrazol-induced seizures at 390 umol/kg, ip administered 30 mins before pentylenetetrazole challenge measured after 30 mins; format: functional
Mus musculus [13] = assay: Anticonvulsant activity in Swiss albino mouse assessed as protection against subcutaneous pentylenetetrazol-induced seizures at 390 umol/kg, ip administered 30 mins before pentylenetetrazole challenge measured after 30 mins relative to stiripentol; format: functional
Mus musculus [14] = assay: Anticonvulsant activity in Swiss albino mouse assessed as protection against subcutaneous pentylenetetrazol-induced seizures at 420 umol/kg, ip administered 30 mins before pentylenetetrazole challenge measured after 30 mins; format: functional
Mus musculus [15] = assay: Anticonvulsant activity in Swiss albino mouse assessed as protection against subcutaneous pentylenetetrazol-induced seizures at 420 umol/kg, ip administered 30 mins before pentylenetetrazole challenge measured after 30 mins relative to stiripentol; format: functional
Mus musculus [16] = assay: Anticonvulsant activity in Swiss albino mouse assessed as maximal electroshock-induced seizures at 420 umol/kg, ip administered 30 mins before electroshock challenge; format: functional, organism-based
Mus musculus [17] = assay: Anticonvulsant activity in Swiss albino mouse assessed as maximal electroshock-induced seizures at 410 umol/kg, ip administered 30 mins before electroshock challenge; format: functional
Mus musculus [18] = assay: Anticonvulsant activity in Swiss albino mouse assessed as protection against subcutaneous pentylenetetrazol-induced seizures at 410 umol/kg, ip administered 30 mins before pentylenetetrazole challenge measured after 30 mins relative to stiripentol; format: functional
Mus musculus [19] = assay: Anticonvulsant activity in Swiss albino mouse assessed as protection against subcutaneous pentylenetetrazol-induced seizures at 410 umol/kg, ip administered 30 mins before pentylenetetrazole challenge measured after 30 mins; format: functional
Mus musculus [20] = assay: Anticonvulsant activity in Swiss albino mouse assessed as protection against subcutaneous pentylenetetrazol-induced seizures at 159 umol/kg, ip administered 30 mins before pentylenetetrazole challenge measured after 30 mins; format: functional, organism-based
Mus musculus [21] = assay: Anticonvulsant activity in Swiss albino mouse assessed as maximal electroshock-induced seizures at 159 umol/kg, ip administered 30 mins before electroshock challenge; format: functional

CC(C)(C)C(/C=C/c1ccc2c(c1)OCO2)=N/NC(N)=O
Activity (Mus musculus [1]): Toxic | Activity (Mus musculus [2]): 1.42% | Activity (Mus musculus [3]): 50% | ED50 (Mus musculus [4]): 87 mg/kg | Activity (Mus musculus [5]): Toxic | Activity (Mus musculus [6]): 100%

CC(C)(C)C(/C=C/c1ccc2c(c1)OCO2)=N/NC(=O)Nc1ccc(Br)cc1
Activity (Mus musculus [7]): 1.6% | Activity (Mus musculus [8]): 66% | Activity (Mus musculus [9]): 16%

CCC1(c2ccccc2)C(=O)NC(=O)NC1=O [PHENOBARBITAL]
Activity (Mus musculus [10]): 100%

CC(C)(C)C1=NN(C(=O)c2ccc(Cl)cc2)C(c2ccc3c(c2)OCO3)C1 (racemic)
Activity (Mus musculus [11]): inactive | Activity (Mus musculus [12]): 50% | Activity (Mus musculus [13]): 1.26 ratio to stiripentol

CC(C)(C)C1=NN(C(=O)c2ccccc2)C(c2ccc3c(c2)OCO3)C1 (racemic)
Activity (Mus musculus [14]): 66% | Activity (Mus musculus [15]): 1.27% | Activity (Mus musculus [16]): inactive

Cc1ccccc1NC(=O)N/N=C(\C=C\c1ccc2c(c1)OCO2)C(C)(C)C
Activity (Mus musculus [11]): inactive | Activity (Mus musculus [12]): 83% | Activity (Mus musculus [13]): 1.48 ratio to stiripentol

Cc1ccc(C(=O)N2N=C(C(C)(C)C)CC2c2ccc3c(c2)OCO3)cc1 (racemic)
Activity (Mus musculus [17]): 33% | Activity (Mus musculus [18]): 1.04% | Activity (Mus musculus [19]): 33%

Cc1ccc(NC(=O)N/N=C(\C=C\c2ccc3c(c2)OCO3)C(C)(C)C)cc1
Activity (Mus musculus [11]): inactive | Activity (Mus musculus [12]): 16% | Activity (Mus musculus [13]): 0.98 ratio to stiripentol

Cc1ccc(NC(=O)N2N=C(C(C)(C)C)CC2c2ccc3c(c2)OCO3)cc1 (racemic)
Activity (Mus musculus [11]): inactive | Activity (Mus musculus [12]): 83% | Activity (Mus musculus [13]): 1.48 ratio to stiripentol

O=C1NC(=O)C(c2ccccc2)(c2ccccc2)N1 [PHENYTOIN]
Activity (Mus musculus [20]): inactive | Activity (Mus musculus [21]): 100%

CC(C)(C)C1=NN(C(=O)Nc2ccc(Br)cc2)C(c2ccc3c(c2)OCO3)C1 (racemic)
Activity (Mus musculus [7]): 1.29% | Activity (Mus musculus [8]): 33% | Activity (Mus musculus [9]): inactive

CC(C)(C)C(/C=C/c1ccc2c(c1)OCO2)=N/NC(=O)Nc1ccc(F)cc1
Activity (Mus musculus [11]): inactive | Activity (Mus musculus [12]): 50% | Activity (Mus musculus [13]): 1.26 ratio to stiripentol

— ChEMBL document CHEMBL2163283, “Design and synthesis of novel stiripentol analogues as potential anticonvulsants” (Eur J Med Chem, 2012)
